Source: ChEMBL document CHEMBL5678816, “A Next-Generation TRK Kinase Inhibitor Overcomes Acquired Resistance to Prior TRK Kinase Inhibition in Patients with TRK Fusion-Positive Solid Tumors” (Cancer Discov, 2017)
Active and inactive are the calls of the source. No cut-off for these calls is given here.

Key:
[1] = target: Serine/threonine-protein kinase MRCK alpha (Homo sapiens) (UniProt Q5VT25); test: Inhibition of MRCKalpha (unknown origin) at 1 uM in presence of ATP relative to control; values are per cent of control
[2] = target: Protein kinase C delta type (Homo sapiens) (UniProt Q05655); test: Inhibition of PKCdelta (unknown origin) at 1 uM in presence of ATP relative to control; values are per cent of control
Protein kinase C delta type (Homo sapiens), sequence (Q05655 whole entry, looked up): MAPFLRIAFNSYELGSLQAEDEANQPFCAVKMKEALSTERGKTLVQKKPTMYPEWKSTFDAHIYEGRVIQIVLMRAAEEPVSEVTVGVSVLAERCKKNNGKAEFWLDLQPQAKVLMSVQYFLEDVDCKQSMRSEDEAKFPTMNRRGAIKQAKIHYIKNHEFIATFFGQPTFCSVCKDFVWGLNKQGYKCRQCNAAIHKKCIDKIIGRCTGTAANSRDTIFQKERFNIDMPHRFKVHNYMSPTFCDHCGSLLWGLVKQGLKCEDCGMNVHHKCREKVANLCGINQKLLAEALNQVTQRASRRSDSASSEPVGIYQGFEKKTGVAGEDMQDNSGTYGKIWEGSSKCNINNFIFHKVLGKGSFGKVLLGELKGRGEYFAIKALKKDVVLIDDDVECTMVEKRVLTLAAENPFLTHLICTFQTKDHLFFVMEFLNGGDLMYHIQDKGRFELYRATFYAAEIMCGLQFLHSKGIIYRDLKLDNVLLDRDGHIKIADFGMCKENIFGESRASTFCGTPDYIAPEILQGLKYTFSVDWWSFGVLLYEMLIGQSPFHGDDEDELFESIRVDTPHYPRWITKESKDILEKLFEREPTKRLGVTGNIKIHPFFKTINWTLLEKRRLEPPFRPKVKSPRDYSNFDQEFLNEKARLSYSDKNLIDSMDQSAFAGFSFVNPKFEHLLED

[3] = Clearance in dog at 1 mg/kg, iv administered as 20% hydroxypropyl-beta-cyclodextrin formulation by LC-MS analysis; type: ADME, organism-based, Canis lupus familiaris; conditions: in vivo
[4] = target: Cytoplasmic tyrosine-protein kinase BMX (Homo sapiens) (UniProt P51813); test: Inhibition of Bmx (unknown origin) at 1 uM in presence of ATP relative to control
[5] = target: Serine/threonine-protein kinase WNK2 (Homo sapiens) (UniProt Q9Y3S1); test: Inhibition of WNK2 (unknown origin) at 1 uM in presence of ATP relative to control; values are per cent of control
[6] = target: SRSF protein kinase 3 (Homo sapiens) (UniProt Q9UPE1); test: Inhibition of MSSK1 (unknown origin) at 1 uM in presence of ATP relative to control; values are per cent of control
[7] = target: Focal adhesion kinase 1 (Homo sapiens) (UniProt Q05397); test: Inhibition of FAK (unknown origin) at 1 uM in presence of ATP relative to control; values are per cent of control
[8] = target: NUAK family SNF1-like kinase 1 (Homo sapiens) (UniProt O60285); test: Inhibition of ARK5 (unknown origin) at 1 uM in presence of ATP relative to control; values are per cent of control
NUAK family SNF1-like kinase 1 (Homo sapiens), sequence (O60285 whole entry): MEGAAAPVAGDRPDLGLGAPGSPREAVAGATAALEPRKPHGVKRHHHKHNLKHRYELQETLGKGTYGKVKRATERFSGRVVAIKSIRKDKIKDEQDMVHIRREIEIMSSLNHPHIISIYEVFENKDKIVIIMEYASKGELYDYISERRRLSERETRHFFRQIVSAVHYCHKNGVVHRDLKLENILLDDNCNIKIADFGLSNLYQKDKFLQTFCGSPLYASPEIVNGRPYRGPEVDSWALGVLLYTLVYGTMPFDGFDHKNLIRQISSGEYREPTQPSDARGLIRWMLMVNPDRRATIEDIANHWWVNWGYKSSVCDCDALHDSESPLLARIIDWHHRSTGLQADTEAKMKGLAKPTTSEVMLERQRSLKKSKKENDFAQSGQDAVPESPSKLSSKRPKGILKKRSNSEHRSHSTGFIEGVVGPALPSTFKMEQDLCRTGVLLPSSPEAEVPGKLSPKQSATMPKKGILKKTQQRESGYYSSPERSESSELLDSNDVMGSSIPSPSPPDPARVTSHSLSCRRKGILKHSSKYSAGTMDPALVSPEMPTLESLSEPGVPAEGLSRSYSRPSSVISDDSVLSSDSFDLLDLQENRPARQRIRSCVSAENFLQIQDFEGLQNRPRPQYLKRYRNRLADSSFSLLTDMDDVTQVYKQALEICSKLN

[9] = target: Tyrosine-protein kinase SYK (Homo sapiens) (UniProt P43405); test: Inhibition of Syk (unknown origin) at 1 uM in presence of ATP relative to control; values are per cent of control
[10] = tested on: SK-N-FI; test: Inhibition of cell proliferation in human SK-N-FI cells upto 10 umol/L incubated for 72 hrs by DAPI staining based analysis; type: functional; conditions: dose <= 10.0 µmol/L
[11] = target: Cyclin-dependent kinase 5/CDK5 activator 1 (Homo sapiens) (UniProt Q00535+Q15078); test: Inhibition of CDK5/p35 (unknown origin) at 1 uM in presence of ATP relative to control; values are per cent of control
Cyclin-dependent kinase 5/CDK5 activator 1 (Homo sapiens), sequence (Q00535 whole entry, the tested form may be a part): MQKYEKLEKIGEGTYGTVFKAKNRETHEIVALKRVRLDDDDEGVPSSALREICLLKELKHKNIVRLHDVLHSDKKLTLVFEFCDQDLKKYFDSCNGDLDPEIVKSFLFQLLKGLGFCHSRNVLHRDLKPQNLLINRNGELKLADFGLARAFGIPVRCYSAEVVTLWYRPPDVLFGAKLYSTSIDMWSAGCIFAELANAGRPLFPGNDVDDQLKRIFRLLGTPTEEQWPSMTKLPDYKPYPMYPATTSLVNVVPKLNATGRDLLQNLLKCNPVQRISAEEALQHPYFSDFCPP
Cyclin-dependent kinase 5/CDK5 activator 1 (Homo sapiens), sequence (Q15078 99-307 partner limits assumed): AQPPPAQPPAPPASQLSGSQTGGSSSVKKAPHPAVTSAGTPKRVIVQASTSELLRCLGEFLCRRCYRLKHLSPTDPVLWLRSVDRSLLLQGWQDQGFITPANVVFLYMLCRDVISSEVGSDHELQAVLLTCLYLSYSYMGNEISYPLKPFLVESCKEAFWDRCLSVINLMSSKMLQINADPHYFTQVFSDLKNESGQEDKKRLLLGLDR

[12] = Inhibition of human extracellular domain deleted TRKA G667S mutant expressed in mouse NIH3T3 cells assessed as reduction in TRKA phosphorylation incubated for 1 hrs by ELISA; type: cell-based; conditions: NIH3T3, 1 h
[13] = target: Serine/threonine-protein kinase 33 (Homo sapiens) (UniProt Q9BYT3); test: Inhibition of STK33 (unknown origin) at 1 uM in presence of ATP relative to control; values are per cent of control
Serine/threonine-protein kinase 33 (Homo sapiens), sequence (Q9BYT3 whole entry, looked up): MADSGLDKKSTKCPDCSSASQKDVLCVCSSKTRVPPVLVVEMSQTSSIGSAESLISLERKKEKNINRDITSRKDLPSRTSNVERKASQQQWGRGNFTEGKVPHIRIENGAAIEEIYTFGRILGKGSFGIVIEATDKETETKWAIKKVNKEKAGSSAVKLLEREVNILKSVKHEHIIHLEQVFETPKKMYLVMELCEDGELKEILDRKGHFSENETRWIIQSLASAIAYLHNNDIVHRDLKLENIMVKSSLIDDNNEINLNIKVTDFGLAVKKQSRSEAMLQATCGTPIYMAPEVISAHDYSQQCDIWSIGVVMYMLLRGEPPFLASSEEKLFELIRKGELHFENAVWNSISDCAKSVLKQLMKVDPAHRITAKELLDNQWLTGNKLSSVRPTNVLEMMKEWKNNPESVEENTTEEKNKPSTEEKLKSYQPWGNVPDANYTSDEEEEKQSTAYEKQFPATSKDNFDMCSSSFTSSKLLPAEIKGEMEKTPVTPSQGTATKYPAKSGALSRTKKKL

[14] = tested on: HT-29; test: Inhibition of cell proliferation in human HT-29 cells upto 10 umol/L incubated for 72 hrs by DAPI staining based analysis; type: functional; conditions: dose <= 10.0 µmol/L
[15] = tested on: JeKo-1; test: Inhibition of cell proliferation in human JeKo-1 cells upto 10 umol/L incubated for 72 hrs by DAPI staining based analysis; type: functional; conditions: dose <= 10.0 µmol/L
[16] = target: ALK tyrosine kinase receptor (Homo sapiens) (UniProt Q9UM73); test: Inhibition of ALK (unknown origin) at 1 uM in presence of ATP relative to control; values are per cent of control
[17] = target: SRSF protein kinase 1 (Homo sapiens) (UniProt Q96SB4); test: Inhibition of SRPK1 (unknown origin) at 1 uM in presence of ATP relative to control; values are per cent of control
SRSF protein kinase 1 (Homo sapiens), sequence (Q96SB4 whole entry): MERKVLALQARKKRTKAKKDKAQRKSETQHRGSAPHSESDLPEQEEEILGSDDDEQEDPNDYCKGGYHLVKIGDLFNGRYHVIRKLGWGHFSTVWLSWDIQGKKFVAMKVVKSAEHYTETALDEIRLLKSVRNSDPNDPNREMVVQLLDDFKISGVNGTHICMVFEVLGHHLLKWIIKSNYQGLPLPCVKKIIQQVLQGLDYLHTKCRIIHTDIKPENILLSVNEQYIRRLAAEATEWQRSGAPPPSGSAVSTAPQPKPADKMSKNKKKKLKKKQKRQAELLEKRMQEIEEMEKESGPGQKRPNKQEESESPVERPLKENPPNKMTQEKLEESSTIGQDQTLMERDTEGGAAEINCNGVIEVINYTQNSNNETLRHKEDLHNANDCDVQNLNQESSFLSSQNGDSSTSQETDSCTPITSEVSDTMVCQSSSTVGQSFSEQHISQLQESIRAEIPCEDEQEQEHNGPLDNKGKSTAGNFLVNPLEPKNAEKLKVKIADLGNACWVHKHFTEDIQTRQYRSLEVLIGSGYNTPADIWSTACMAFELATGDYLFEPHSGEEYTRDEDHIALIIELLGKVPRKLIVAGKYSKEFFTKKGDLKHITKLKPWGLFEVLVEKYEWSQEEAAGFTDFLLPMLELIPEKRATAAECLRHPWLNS

[18] = tested on: L-428; test: Inhibition of cell proliferation in human L428 cells upto 10 umol/L incubated for 72 hrs by DAPI staining based analysis; type: functional; conditions: dose <= 10.0 µmol/L
[19] = target: Platelet-derived growth factor receptor alpha (Homo sapiens) (UniProt P16234); test: Inhibition of PDGFRalpha (unknown origin) at 1 uM in presence of ATP relative to control; values are per cent of control
[20] = tested on: TPC1; test: Inhibition of cell proliferation in human TPC1 cells upto 10 umol/L incubated for 72 hrs by DAPI staining based analysis; type: functional; conditions: dose <= 10.0 µmol/L
[21] = target: Tyrosine-protein kinase Lck (Homo sapiens) (UniProt P06239); test: Inhibition of Lck (unknown origin) at 1 uM in presence of ATP relative to control; values are per cent of control
[22] = target: cAMP-dependent protein kinase catalytic subunit PRKX (Homo sapiens) (UniProt P51817); test: Inhibition of PrKX (unknown origin) at 1 uM in presence of ATP relative to control; values are per cent of control
cAMP-dependent protein kinase catalytic subunit PRKX (Homo sapiens), sequence (P51817 whole entry): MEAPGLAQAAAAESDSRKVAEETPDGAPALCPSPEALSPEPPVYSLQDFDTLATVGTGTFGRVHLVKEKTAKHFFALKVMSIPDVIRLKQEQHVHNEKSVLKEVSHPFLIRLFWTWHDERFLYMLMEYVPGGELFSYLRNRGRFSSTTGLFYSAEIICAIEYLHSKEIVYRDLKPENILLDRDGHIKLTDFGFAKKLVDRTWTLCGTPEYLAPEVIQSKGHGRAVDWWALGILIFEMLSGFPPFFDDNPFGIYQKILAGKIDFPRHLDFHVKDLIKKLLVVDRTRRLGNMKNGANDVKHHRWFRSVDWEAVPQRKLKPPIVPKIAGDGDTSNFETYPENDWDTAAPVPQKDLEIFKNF

[23] = AUC in adult patient with recurrent LMNA-NTRK1 rearranged colorectal cancer at 50 mg administered twice a day as powder-in-capsule or liquid formulation for 1 day by LC-MS/MS analysis; type: ADME; conditions: human, in vivo, po
[24] = Cmax in adult patient with recurrent LMNA-NTRK1 rearranged colorectal cancer at 100 mg administered twice a day as powder-in-capsule or liquid formulation for 15 days by LC-MS/MS analysis; type: ADME; conditions: human, in vivo, po, time 15 day
[25] = target: Myosin light chain kinase, smooth muscle (Homo sapiens) (UniProt Q15746); test: Inhibition of MYLK (unknown origin) at 1 uM in presence of ATP relative to control; values are per cent of control
[26] = tested on: KM12; test: Inhibition of cell proliferation in TPM3-NTRK1 fusion positive human KM12 cells incubated for 72 hrs by DAPI staining based analysis; type: functional; conditions: KM12, 72 h
[27] = target: Fibroblast growth factor receptor 1 (Homo sapiens) (UniProt P11362); test: Inhibition of FGFR1 (unknown origin) at 1 uM in presence of ATP relative to control; values are per cent of control
[28] = target: Fibroblast growth factor receptor 3 (Homo sapiens) (UniProt P22607); test: Inhibition of FGFR3 (unknown origin) at 1 uM in presence of ATP relative to control; values are per cent of control
Fibroblast growth factor receptor 3 (Homo sapiens), sequence (P22607 23-806 limits assumed): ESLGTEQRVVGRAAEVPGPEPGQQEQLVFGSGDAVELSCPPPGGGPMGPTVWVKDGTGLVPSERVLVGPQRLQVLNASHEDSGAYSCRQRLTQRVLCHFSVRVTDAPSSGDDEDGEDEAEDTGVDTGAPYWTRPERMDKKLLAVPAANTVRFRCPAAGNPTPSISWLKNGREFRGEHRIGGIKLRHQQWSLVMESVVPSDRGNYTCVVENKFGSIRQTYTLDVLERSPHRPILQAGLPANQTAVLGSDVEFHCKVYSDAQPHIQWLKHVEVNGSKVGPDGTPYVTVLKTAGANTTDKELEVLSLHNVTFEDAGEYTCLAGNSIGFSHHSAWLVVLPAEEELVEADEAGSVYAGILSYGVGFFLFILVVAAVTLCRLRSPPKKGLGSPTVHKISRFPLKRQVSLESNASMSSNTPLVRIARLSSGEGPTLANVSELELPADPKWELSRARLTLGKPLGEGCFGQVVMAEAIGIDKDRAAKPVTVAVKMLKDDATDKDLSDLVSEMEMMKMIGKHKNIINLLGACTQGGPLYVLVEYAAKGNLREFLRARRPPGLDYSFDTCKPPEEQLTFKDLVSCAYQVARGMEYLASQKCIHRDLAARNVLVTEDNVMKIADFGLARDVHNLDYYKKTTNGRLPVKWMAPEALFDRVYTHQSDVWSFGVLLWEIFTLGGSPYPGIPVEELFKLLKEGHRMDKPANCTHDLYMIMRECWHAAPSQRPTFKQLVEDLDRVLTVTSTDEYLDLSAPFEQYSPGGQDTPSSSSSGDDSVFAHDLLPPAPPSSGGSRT

[29] = target: Tyrosine-protein kinase Fyn (Homo sapiens) (UniProt P06241); test: Inhibition of Fyn (unknown origin) at 1 uM in presence of ATP relative to control; values are per cent of control
Tyrosine-protein kinase Fyn (Homo sapiens), sequence (P06241 2-537 limits assumed): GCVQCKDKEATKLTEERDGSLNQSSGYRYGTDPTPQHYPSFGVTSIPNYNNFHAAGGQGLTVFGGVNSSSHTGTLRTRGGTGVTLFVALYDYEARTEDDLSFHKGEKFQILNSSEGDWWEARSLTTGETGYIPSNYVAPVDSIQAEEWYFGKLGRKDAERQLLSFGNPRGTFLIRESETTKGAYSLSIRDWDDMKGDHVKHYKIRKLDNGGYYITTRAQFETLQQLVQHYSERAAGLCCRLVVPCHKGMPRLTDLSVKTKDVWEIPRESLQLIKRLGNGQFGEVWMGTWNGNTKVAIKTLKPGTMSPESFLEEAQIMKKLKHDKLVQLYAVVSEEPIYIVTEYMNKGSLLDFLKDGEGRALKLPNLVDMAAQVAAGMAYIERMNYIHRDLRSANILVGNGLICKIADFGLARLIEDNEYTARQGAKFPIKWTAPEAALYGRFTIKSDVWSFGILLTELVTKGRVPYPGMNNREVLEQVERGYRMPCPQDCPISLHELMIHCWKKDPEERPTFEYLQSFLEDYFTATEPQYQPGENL

- residual activity [1]: 138%
- residual activity [2]: 108%
- clearance [3]: 12.8 mL/min/kg
- inhibition [4]: 15%
- residual activity [5]: 128%
- residual activity [6]: 122%
- residual activity [7]: 81%
- residual activity [8]: 98%
- residual activity [9]: 114%
- residual activity [11]: 110%
- IC50 [12]: 25 nM
- residual activity [13]: 106%
- residual activity [16]: 50%
- residual activity [17]: 104%
- residual activity [19]: 104%
- residual activity [21]: 92.5%
- residual activity [22]: 118%
- AUC at 24 h [23]: 1190 ng·h/mL
- Cmax [24]: 673 ng/mL
- residual activity [25]: 109%
- residual activity [27]: 91.5%
- residual activity [28]: 119%
- residual activity [29]: 90.5%
SMILES: C[C@@H]1CCc2ncc(F)cc2[C@H]2CCCN2c2ccn3ncc(c3n2)C(=O)N1 [SELITRECTINIB]
- inhibition [10]: inactive
- inhibition [14]: inactive
- inhibition [15]: inactive
- inhibition [18]: inactive
- inhibition [20]: inactive
- IC50 [26]: ≤ 5 nM
